Source: patent US20060252048A1, “Method for testing ghrelin release” (priority 2003, published 2006)
Where no end group is shown, it is not given here. The star is where a group is joined. SO3H = O=S(=O)(O)*

Tested on: RF-48 cells
Test: ghrelin release from RF-48 cells measured by enzyme immunoassay
Format: cell-based, human
Settings: 1 hour incubation with test compound, supernatant measured with EIA kit, compared with control and control+vehicle (FIG. 1)
Method: These test compounds were made as 100× stock solutions by dissolving them in pure ethanol, as a vehicle. The test compounds were then diluted 1/100 in the Leibovitz L-15 medium containing 0.5% foetal bovine serum (FBS).
Since the effect caused by these test compounds on ghrelin release by a RF-48 cell line was tested, RF-48 cells were grown during incubation at 37° C. in Leibovitz's L15 medium with 2 mM L-glutamine and containing 10% (vol/vol) FBS in the absence of CO2.
After cell confluence was obtained, the cells were plated in 24-well cultures plates (1×10^5 cells/well). Several wells were subsequently exposed to one of the test compounds as prepared above. For each type and concentration of test compound tested, a series of three tests was carried out.
After 1 hour of incubation of the thus-filled wells containing both the cells and the test compound at the same conditions as those applied during growing of the RF-48 cells, a sample was taken from each well to measure ghrelin release.
Each sample was centrifuged at 3000 rpm to remove the cells from the sample and the supernatant (containing the ghrelin formed as well as the medium and the test compound) was transferred to a separate tube. The ghrelin release was measured using a commercial enzyme immunoassay kit (from Phoenix Pharmaceuticals, Belmont, Calif., USA). […]

## Tyr(SO3H]27)Cholecystokinin fragment 26-33 Amide (DY(SO3H)MGWMDF-NH2; UniProt P06307 96-103, looked up) [CCK]
  ghrelin release: stimulate the release of ghrelin
